Assay results: the supplement of paper PMC10307832

Tests used:
Test in all cases: relative viability (nuclei count vs DMSO), 5 days (fraction); higher = more cells survive
Bortezomib + Pictilisib = compound: CC(C)C[C@H](NC(=O)[C@H](Cc1ccccc1)NC(=O)c1cnccn1)B(O)O [Bortezomib] + CS(=O)(=O)N1CCN(Cc2cc3nc(-c4cccc5[nH]ncc45)nc(N4CCOCC4)c3s2)CC1 [Pictilisib] (partner 1 µM)
Procedure, shortened: (§1)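 For relative viability, nuclei counts in treated wells were divided by those in vehicle wells. Lung cancer cell lines had been pin-tool dosed in 1536-well plates the day after seeding and cultured for 5 days, then fixed and stained in one step (final 0.05% Triton X-100, 1% formaldehyde, 1 ug/ml Hoechst) and imaged at 4×. Doses were one drug alone or a fixed anchor-drug dose plus five library-drug doses (not always all listed) in √10 steps, and values are duplicate-plate medians.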

[1] = compound: CC1=CC(=NN1)NC2=CC(=NC(=N2)/C=C/C3=CC=CC=C3)N4CCN(CC4)C + Nc1ncn([C@H]2C[C@H](O)[C@@H](CO)O2)c(=O)n1 [Decitabine] (partner 2 µM)
Procedure, shortened: as §1

Obatoclax + Pictilisib = compound: COC1=CC(c2cc3ccccc3[nH]2)=N/C1=C\c1[nH]c(C)cc1C [Obatoclax] + CS(=O)(=O)N1CCN(Cc2cc3nc(-c4cccc5[nH]ncc45)nc(N4CCOCC4)c3s2)CC1 [Pictilisib] (partner 1 µM)
Procedure, shortened: as §1

Obatoclax + Pemetrexed = compound: COC1=CC(c2cc3ccccc3[nH]2)=N/C1=C\c1[nH]c(C)cc1C [Obatoclax] + Nc1nc2[nH]cc(CCc3ccc(C(=O)N[C@@H](CCC(=O)O)C(=O)O)cc3)c2c(=O)[nH]1 [Pemetrexed] (partner 0.2 µM)
Procedure, shortened: as §1

Cell Line: HARA
- relative viability (Bortezomib + Pictilisib; first compound 0.0002 µM): 0.479
- relative viability (Bortezomib + Pictilisib; first compound 0.000632 µM): 0.529
- relative viability (Bortezomib + Pictilisib; first compound 0.002 µM): 0.481
- relative viability (Bortezomib + Pictilisib; first compound 0.006325 µM): 0.0462
- relative viability (Bortezomib + Pictilisib; first compound 0.02 µM): 0.0659
- relative viability ([1]; first compound 0.08 µM): 0.529
- relative viability ([1]; first compound 0.253 µM): 0.641
- relative viability ([1]; first compound 0.8 µM): 0.569
- relative viability ([1]; first compound 2.53 µM): 0.192
- relative viability ([1]; first compound 8 µM): 0.132
- relative viability (Obatoclax + Pictilisib; first compound 0.01 µM): 0.449
- relative viability (Obatoclax + Pictilisib; first compound 0.03162 µM): 0.445
- relative viability (Obatoclax + Pictilisib; first compound 0.1 µM): 0.426
- relative viability (Obatoclax + Pictilisib; first compound 0.3162 µM): 0.379
- relative viability (Obatoclax + Pictilisib; first compound 1 µM): 0.352
- relative viability (Obatoclax + Pemetrexed; first compound 0.01 µM): 0.236
- relative viability (Obatoclax + Pemetrexed; first compound 0.03162 µM): 0.293
- relative viability (Obatoclax + Pemetrexed; first compound 0.1 µM): 0.249
- relative viability (Obatoclax + Pemetrexed; first compound 0.3162 µM): 0.262
- relative viability (Obatoclax + Pemetrexed; first compound 1 µM): 0.303

Cell Line: HCC-15
- relative viability (Bortezomib + Pictilisib; first compound 0.0002 µM): 0.649
- relative viability (Bortezomib + Pictilisib; first compound 0.000632 µM): 0.745
- relative viability (Bortezomib + Pictilisib; first compound 0.002 µM): 0.733
- relative viability (Bortezomib + Pictilisib; first compound 0.006325 µM): 0.396
- relative viability (Bortezomib + Pictilisib; first compound 0.02 µM): 0.111
- relative viability ([1]; first compound 0.08 µM): 0.592
- relative viability ([1]; first compound 0.253 µM): 0.654
- relative viability ([1]; first compound 0.8 µM): 0.655
- relative viability ([1]; first compound 2.53 µM): 0.108
- relative viability ([1]; first compound 8 µM): 0.0983
- relative viability (Obatoclax + Pictilisib; first compound 0.01 µM): 0.737
- relative viability (Obatoclax + Pictilisib; first compound 0.03162 µM): 0.658
- relative viability (Obatoclax + Pictilisib; first compound 0.1 µM): 0.744
- relative viability (Obatoclax + Pictilisib; first compound 0.3162 µM): 0.686
- relative viability (Obatoclax + Pictilisib; first compound 1 µM): 0.471
- relative viability (Obatoclax + Pemetrexed; first compound 0.01 µM): 0.215
- relative viability (Obatoclax + Pemetrexed; first compound 0.03162 µM): 0.234
- relative viability (Obatoclax + Pemetrexed; first compound 0.1 µM): 0.215
- relative viability (Obatoclax + Pemetrexed; first compound 0.3162 µM): 0.225
- relative viability (Obatoclax + Pemetrexed; first compound 1 µM): 0.228

Cell Line: HCC-44
- relative viability (Bortezomib + Pictilisib; first compound 0.0002 µM): 0.581
- relative viability (Bortezomib + Pictilisib; first compound 0.000632 µM): 0.575
- relative viability (Bortezomib + Pictilisib; first compound 0.002 µM): 0.554
- relative viability (Bortezomib + Pictilisib; first compound 0.006325 µM): 0.464
- relative viability (Bortezomib + Pictilisib; first compound 0.02 µM): 0.133
- relative viability ([1]; first compound 0.08 µM): 0.967
- relative viability ([1]; first compound 0.253 µM): 0.965
- relative viability ([1]; first compound 0.8 µM): 0.909
- relative viability ([1]; first compound 2.53 µM): 0.87
- relative viability ([1]; first compound 8 µM): 0.845
- relative viability (Obatoclax + Pictilisib; first compound 0.01 µM): 0.69
- relative viability (Obatoclax + Pictilisib; first compound 0.03162 µM): 0.552
- relative viability (Obatoclax + Pictilisib; first compound 0.1 µM): 0.577
- relative viability (Obatoclax + Pictilisib; first compound 0.3162 µM): 0.583
- relative viability (Obatoclax + Pictilisib; first compound 1 µM): 0.246
- relative viability (Obatoclax + Pemetrexed; first compound 0.01 µM): 0.64
- relative viability (Obatoclax + Pemetrexed; first compound 0.03162 µM): 0.648
- relative viability (Obatoclax + Pemetrexed; first compound 0.1 µM): 0.589
- relative viability (Obatoclax + Pemetrexed; first compound 0.3162 µM): 0.627
- relative viability (Obatoclax + Pemetrexed; first compound 1 µM): 0.652

Cell Line: HCC-78
- relative viability (Bortezomib + Pictilisib; first compound 0.0002 µM): 0.183
- relative viability (Bortezomib + Pictilisib; first compound 0.000632 µM): 0.23
- relative viability (Bortezomib + Pictilisib; first compound 0.002 µM): 0.207
- relative viability (Bortezomib + Pictilisib; first compound 0.006325 µM): 0.21
- relative viability (Bortezomib + Pictilisib; first compound 0.02 µM): 0.193
- relative viability ([1]; first compound 0.08 µM): 0.585
- relative viability ([1]; first compound 0.253 µM): 0.624
- relative viability ([1]; first compound 0.8 µM): 0.694
- relative viability ([1]; first compound 2.53 µM): 0.472
- relative viability ([1]; first compound 8 µM): 0.292
- relative viability (Obatoclax + Pictilisib; first compound 0.01 µM): 0.179
- relative viability (Obatoclax + Pictilisib; first compound 0.03162 µM): 0.207
- relative viability (Obatoclax + Pictilisib; first compound 0.3162 µM): 0.158
- relative viability (Obatoclax + Pictilisib; first compound 1 µM): 0.2
- relative viability (Obatoclax + Pemetrexed; first compound 0.01 µM): 0.858
- relative viability (Obatoclax + Pemetrexed; first compound 0.03162 µM): 0.898
- relative viability (Obatoclax + Pemetrexed; first compound 0.1 µM): 0.777
- relative viability (Obatoclax + Pemetrexed; first compound 0.3162 µM): 0.887
- relative viability (Obatoclax + Pemetrexed; first compound 1 µM): 0.897

Cell Line: HCC-366
- relative viability (Bortezomib + Pictilisib; first compound 0.0002 µM): 0.119
- relative viability (Bortezomib + Pictilisib; first compound 0.000632 µM): 0.12
- relative viability (Bortezomib + Pictilisib; first compound 0.002 µM): 0.117
- relative viability (Bortezomib + Pictilisib; first compound 0.006325 µM): 0.166
- relative viability (Bortezomib + Pictilisib; first compound 0.02 µM): 0.0325
- relative viability ([1]; first compound 0.08 µM): 0.35
- relative viability ([1]; first compound 0.253 µM): 0.368
- relative viability ([1]; first compound 0.8 µM): 0.318
- relative viability ([1]; first compound 2.53 µM): 0.0513
- relative viability ([1]; first compound 8 µM): 0.0463
- relative viability (Obatoclax + Pictilisib; first compound 0.01 µM): 0.136
- relative viability (Obatoclax + Pictilisib; first compound 0.03162 µM): 0.151
- relative viability (Obatoclax + Pictilisib; first compound 0.1 µM): 0.172
- relative viability (Obatoclax + Pictilisib; first compound 0.3162 µM): 0.159
- relative viability (Obatoclax + Pictilisib; first compound 1 µM): 0.12
- relative viability (Obatoclax + Pemetrexed; first compound 0.01 µM): 0.152
- relative viability (Obatoclax + Pemetrexed; first compound 0.03162 µM): 0.172
- relative viability (Obatoclax + Pemetrexed; first compound 0.1 µM): 0.114
- relative viability (Obatoclax + Pemetrexed; first compound 0.3162 µM): 0.223
- relative viability (Obatoclax + Pemetrexed; first compound 1 µM): 0.309

Cell Line: HCC-827
- relative viability (Bortezomib + Pictilisib; first compound 0.0002 µM): 0.772
- relative viability (Bortezomib + Pictilisib; first compound 0.000632 µM): 0.956
- relative viability (Bortezomib + Pictilisib; first compound 0.002 µM): 0.984
- relative viability (Bortezomib + Pictilisib; first compound 0.006325 µM): 0.82
- relative viability (Bortezomib + Pictilisib; first compound 0.02 µM): 0.235
- relative viability ([1]; first compound 0.08 µM): 0.196
- relative viability ([1]; first compound 0.253 µM): 0.353
- relative viability ([1]; first compound 0.8 µM): 0.337
- relative viability ([1]; first compound 2.53 µM): 0.285
- relative viability ([1]; first compound 8 µM): 0.189
- relative viability (Obatoclax + Pictilisib; first compound 0.01 µM): 1.04
- relative viability (Obatoclax + Pictilisib; first compound 0.03162 µM): 0.948
- relative viability (Obatoclax + Pictilisib; first compound 0.1 µM): 0.953
- relative viability (Obatoclax + Pictilisib; first compound 0.3162 µM): 0.916
- relative viability (Obatoclax + Pictilisib; first compound 1 µM): 1.04
- relative viability (Obatoclax + Pemetrexed; first compound 0.01 µM): 0.241
- relative viability (Obatoclax + Pemetrexed; first compound 0.03162 µM): 0.275
- relative viability (Obatoclax + Pemetrexed; first compound 0.1 µM): 0.247
- relative viability (Obatoclax + Pemetrexed; first compound 0.3162 µM): 0.17
- relative viability (Obatoclax + Pemetrexed; first compound 1 µM): 0.278

Cell Line: HOP-62
- relative viability (Bortezomib + Pictilisib; first compound 0.0002 µM): 0.752
- relative viability (Bortezomib + Pictilisib; first compound 0.000632 µM): 0.667
- relative viability (Bortezomib + Pictilisib; first compound 0.002 µM): 0.748
- relative viability (Bortezomib + Pictilisib; first compound 0.006325 µM): 0.333
- relative viability (Bortezomib + Pictilisib; first compound 0.02 µM): 0.0568
- relative viability ([1]; first compound 0.08 µM): 0.203
- relative viability ([1]; first compound 0.253 µM): 0.191
- relative viability ([1]; first compound 0.8 µM): 0.212
- relative viability ([1]; first compound 2.53 µM): 0.197
- relative viability ([1]; first compound 8 µM): 0.166
- relative viability (Obatoclax + Pictilisib; first compound 0.01 µM): 0.649
- relative viability (Obatoclax + Pictilisib; first compound 0.03162 µM): 0.803
- relative viability (Obatoclax + Pictilisib; first compound 0.1 µM): 0.449
- relative viability (Obatoclax + Pictilisib; first compound 0.3162 µM): 0.761
- relative viability (Obatoclax + Pictilisib; first compound 1 µM): 0.757
- relative viability (Obatoclax + Pemetrexed; first compound 0.01 µM): 0.279
- relative viability (Obatoclax + Pemetrexed; first compound 0.03162 µM): 0.377
- relative viability (Obatoclax + Pemetrexed; first compound 0.1 µM): 0.329
- relative viability (Obatoclax + Pemetrexed; first compound 0.3162 µM): 0.424
- relative viability (Obatoclax + Pemetrexed; first compound 1 µM): 0.358
